This note sets out measurements from PubChem BioAssay (NCI).

Among the test systems are OVCAR-8 ovarian; MDA-MB-231 breast; IGROV1 ovarian; COLO 205 colon; SR leukemia; HCT-15 colon; NCI-H226 lung; MOLT-4 leukemia; U251 CNS; A498 renal.
Common to all, as to experiment: growth of human tumour cells (NCI), 48 h

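Cells were grown in 96-well plates and exposed to each compound for 48 hours at five concentrations; endpoints were interpolated linearly between bracketing concentrations, or set to the highest concentration if not reached. GI50 marks 50% less growth. The concentration for full growth arrest is given as TGI.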

Turning to `O=C(N/N=C/c1ccc(Br)cc1)N/N=C/c1ccc(Br)cc1`, the TGI is 19.8 µM in the experiment on OVCAR-8 ovarian; 16.2 µM in the experiment on MDA-MB-231 breast; 27.7 µM with IGROV1 ovarian; greater than 100 µM in the experiment with COLO 205 colon; 17.7 µM in the experiment with SR leukemia; greater than 100 µM in the experiment with HCT-15 colon. Further, the TGI in the experiment with NCI-H226 lung came to 22.9 µM; with MOLT-4 leukemia, 30.2 µM; in the experiment on U251 CNS it was 18.5 µM.
Take `COc1c(O)c2c(=O)cc(OC)c3c4c(OC)cc(=O)c5c(O)c(OC)c6c(c(c1C(C(C)O)C6C(C)O)c23)c54` (centres undefined): the TGI worked out at 2.48 µM with OVCAR-8 ovarian; 5.48 µM in the experiment with MDA-MB-231 breast; 2.3 µM with IGROV1 ovarian; 3.45 µM in the experiment on A498 renal; 4.22 µM in the experiment on COLO 205 colon; 5.37 µM in the experiment with SR leukemia. Also, the TGI with NCI-H226 lung was found to be 5.46 µM; with MOLT-4 leukemia it was 1.25 µM; with U251 CNS, 11.3 µM.
As to `O=c1[nH]c(=O)n(C2CC(O)C(CO)O2)cc1OCc1ccccc1` (centres undefined), the TGI in the experiment with OVCAR-8 ovarian, in the experiment on MDA-MB-231 breast, with IGROV1 ovarian, in the experiment on COLO 205 colon, with SR leukemia and with HCT-15 colon was greater than 100 µM each time. In addition, the TGI with NCI-H226 lung, with MOLT-4 leukemia and with U251 CNS was greater than 100 µM throughout.
`COC(=O)[C@H](Cc1ccccc1)NC(=O)CCCCCCC(=O)NO`: the TGI in the experiment with OVCAR-8 ovarian is greater than 100 µM; in the experiment on MDA-MB-231 breast, 65.3 µM; with IGROV1 ovarian, 57.5 µM; in the experiment on COLO 205 colon, greater than 100 µM; with SR leukemia it was greater than 100 µM; in the experiment with HCT-15 colon it was greater than 100 µM. Also, the TGI with NCI-H226 lung was greater than 100 µM; with MOLT-4 leukemia, greater than 100 µM; in the experiment on U251 CNS, 87.5 µM.
With `COc1nc(C#CC(C)(C)C)nc(OC)n1`, the TGI with OVCAR-8 ovarian was 37.6 µM; with MDA-MB-231 breast, 59.8 µM; with IGROV1 ovarian, greater than 100 µM; in the experiment on A498 renal, greater than 100 µM; in the experiment on COLO 205 colon it was greater than 100 µM; in the experiment on SR leukemia, 79.3 µM. The values for the TGI in the experiment on HCT-15 colon, with MOLT-4 leukemia and in the experiment on U251 CNS were 61.5 µM, greater than 100 µM and greater than 100 µM, respectively.
As to `NS(=O)(=O)c1cccc(NC(=S)NC(=O)Nc2ccc(Cl)c(Cl)c2)c1`, the TGI in the experiment on OVCAR-8 ovarian turned out to be 32.5 µM; in the experiment on MDA-MB-231 breast it was 38.5 µM; in the experiment with IGROV1 ovarian it was 45.4 µM; with A498 renal, 26.3 µM; in the experiment on COLO 205 colon it was 35.4 µM; in the experiment with HCT-15 colon, 33.6 µM. Moreover, the TGI with MOLT-4 leukemia was determined as 37.6 µM; in the experiment on U251 CNS, 39.6 µM.
For `CCCCCCCCCc1nn2c(Cc3ccccc3)nnc2s1`, the TGI with OVCAR-8 ovarian was determined as 29.8 µM; in the experiment with MDA-MB-231 breast, 54.5 µM; with A498 renal, 34.2 µM; in the experiment with COLO 205 colon it was 41 µM; with HCT-15 colon, 35.4 µM; in the experiment on MOLT-4 leukemia, 59.3 µM. This compound came in with a TGI in the experiment on U251 CNS of 36.6 µM.
For `N#Cc1nc(NC(=O)c2ccccc2C(=O)O)c(C#N)[nH]1`, the TGI in the experiment on OVCAR-8 ovarian, in the experiment on MDA-MB-231 breast, with IGROV1 ovarian, in the experiment with A498 renal, in the experiment with COLO 205 colon and with NCI-H226 lung was greater than 100 µM in each case. Also, the TGI in the experiment on MOLT-4 leukemia and in the experiment with U251 CNS was greater than 100 µM throughout.
Take `COc1ccc(COCC[C@H](C)OC2OC(CO[Si](C)(C)C(C)(C)C)C(OC(=O)CCCN=[N+]=[N-])C(OC(=O)CCCN=[N+]=[N-])C2OC(=O)CCCN=[N+]=[N-])cc1` (some centres undefined): the TGI with OVCAR-8 ovarian is 75.8 µM; with MDA-MB-231 breast, greater than 100 µM; in the experiment with IGROV1 ovarian, greater than 100 µM; in the experiment with A498 renal, greater than 100 µM; in the experiment on COLO 205 colon, 83.1 µM; in the experiment on HCT-15 colon it was 88.7 µM. The TGI in the experiment with NCI-H226 lung was 89.2 µM; in the experiment on U251 CNS it was greater than 100 µM.
Regarding `CC(=O)OC1C(COC(=O)c2ccccc2)OC(Nc2ncc(-c3ccc(Br)cc3)s2)C(OC(=O)c2ccccc2)C1OC(=O)c1ccccc1` (centres undefined), the TGI in the experiment with OVCAR-8 ovarian, in the experiment on MDA-MB-231 breast, in the experiment with IGROV1 ovarian, in the experiment on COLO 205 colon, with SR leukemia and in the experiment on NCI-H226 lung was greater than 100 µM throughout. Also, the TGI in the experiment on MOLT-4 leukemia and in the experiment on U251 CNS was greater than 100 µM throughout.
`COC(=O)C1=Nc2c(C)nn(-c3ccccc3)c2N=C(c2ccccc2)C1`: the TGI in the experiment with OVCAR-8 ovarian, with MDA-MB-231 breast, in the experiment on IGROV1 ovarian, with COLO 205 colon, in the experiment on SR leukemia and with HCT-15 colon was greater than 10 µM each time. Besides, the TGI in the experiment with MOLT-4 leukemia and in the experiment on U251 CNS was greater than 10 µM each time.
`COc1cc2c(c(O)c1OC)C(=O)C(Cc1ccc(O)cc1)CO2` (centres undefined): the TGI was greater than 100 µM with OVCAR-8 ovarian; 77.4 µM with MDA-MB-231 breast; greater than 100 µM in the experiment on IGROV1 ovarian; greater than 100 µM in the experiment on COLO 205 colon; greater than 100 µM in the experiment on SR leukemia; greater than 100 µM in the experiment on HCT-15 colon. Besides, the TGI in the experiment on NCI-H226 lung, in the experiment on MOLT-4 leukemia and in the experiment with U251 CNS was greater than 100 µM throughout.
Turning to `O=c1cc(N2CCCC2)[nH]c(=O)n1-c1ccccc1`, the TGI in the experiment on OVCAR-8 ovarian, in the experiment on MDA-MB-231 breast, with IGROV1 ovarian, in the experiment on COLO 205 colon, in the experiment on SR leukemia and in the experiment with HCT-15 colon was greater than 100 µM each time. Also, the TGI in the experiment with NCI-H226 lung, in the experiment on MOLT-4 leukemia and in the experiment with U251 CNS was greater than 100 µM in each case.
With `Cc1cnc2c(c1)C(=O)C1=C(C2=O)C2OC(=O)CC2OC1(C)C` (centres undefined), the TGI in the experiment with OVCAR-8 ovarian was 2.19 µM; with MDA-MB-231 breast, 0.35 µM; in the experiment on IGROV1 ovarian it was 0.424 µM; in the experiment with A498 renal, 3.75 µM; in the experiment on COLO 205 colon it was 0.326 µM; with SR leukemia, 0.29 µM. Also, the TGI amounted to 0.202 µM in the experiment with HCT-15 colon, 2.31 µM with NCI-H226 lung and 0.519 µM in the experiment with U251 CNS.
With `COCCOCCOC1=CC(=O)c2c(O)ccc(O)c2C1=O`, the TGI with MDA-MB-231 breast is 2.83 µM; in the experiment with IGROV1 ovarian, 3.21 µM; in the experiment with A498 renal, 5.08 µM; with COLO 205 colon it was 0.883 µM; in the experiment with SR leukemia, 5.03 µM; with NCI-H226 lung, 3.88 µM. For the same compound, the TGI with MOLT-4 leukemia came to 5.56 µM.
`O=c1[nH]c(Nc2cccc(CO)c2)nc2nc[nH]c12`: the TGI in the experiment with OVCAR-8 ovarian, in the experiment with MDA-MB-231 breast, in the experiment with IGROV1 ovarian, in the experiment on COLO 205 colon, with SR leukemia and with HCT-15 colon was greater than 100 µM throughout. Besides, the TGI in the experiment on NCI-H226 lung, in the experiment with MOLT-4 leukemia and with U251 CNS was greater than 100 µM each time.
For the compound `COc1ccc(CC2COc3cc(O)cc(O)c3C2=O)cc1O` (centres undefined), the TGI with OVCAR-8 ovarian is greater than 100 µM; with MDA-MB-231 breast it was greater than 100 µM; in the experiment with IGROV1 ovarian, greater than 100 µM; with A498 renal, greater than 100 µM; in the experiment with COLO 205 colon it was 43.8 µM; with SR leukemia it was greater than 100 µM. Further, the TGI with HCT-15 colon, in the experiment with MOLT-4 leukemia and with U251 CNS was greater than 100 µM each time.
For the compound `CCCCn1c(-c2ccc([N+](=O)[O-])cc2)cs/c1=N/N=C1\C(=O)Nc2ccc(Br)cc21`, the TGI with OVCAR-8 ovarian was greater than 100 µM; with MDA-MB-231 breast it was 32.7 µM; with IGROV1 ovarian, greater than 100 µM; in the experiment on A498 renal, 34.3 µM; in the experiment with COLO 205 colon, 28.7 µM; in the experiment on HCT-15 colon, greater than 100 µM. In addition, the TGI was 38.3 µM in the experiment with NCI-H226 lung, 46.5 µM in the experiment with MOLT-4 leukemia and 22.9 µM with U251 CNS.
Turning to `CCON1CC(C(=O)OC)=C(O)C1=O`, the TGI in the experiment on OVCAR-8 ovarian, in the experiment on MDA-MB-231 breast, in the experiment on IGROV1 ovarian, in the experiment with A498 renal, in the experiment with COLO 205 colon and in the experiment with HCT-15 colon was greater than 100 µM each time. Moreover, the TGI in the experiment with MOLT-4 leukemia and with U251 CNS was greater than 100 µM throughout.
With `O=c1cc(/C=C/c2ccccc2)[nH]c2cc3c(cc12)OCO3`, the TGI turned out to be 19.9 µM in the experiment with OVCAR-8 ovarian; 9.18 µM with MDA-MB-231 breast; 19.8 µM in the experiment with IGROV1 ovarian; 9.87 µM with A498 renal; 6.43 µM with COLO 205 colon; 8.23 µM in the experiment with HCT-15 colon. Also, the TGI with NCI-H226 lung amounted to 10.8 µM; with MOLT-4 leukemia, 13.7 µM; in the experiment on U251 CNS it was 7.18 µM. Further, in the experiment with NCI-H226 lung, the GI50 is 2.91 µM.
Turning to `COC1CC(OC2CCC3(C)C(=CCC4C3C(OC(C)=O)C(OC(=O)CC(C)C)C3(C)C(C(C)=O)CCC43O)C2)OC(C)C1OC1CC(OC)C(OC2CC(OC)C(OC3OC(C)C(OC4OC(CO)C(O)C(O)C4O)C(OC)C3O)C(C)O2)C(C)O1` (centres undefined), the TGI in the experiment with OVCAR-8 ovarian, with MDA-MB-231 breast, in the experiment on IGROV1 ovarian, in the experiment with A498 renal, with COLO 205 colon and in the experiment with HCT-15 colon was greater than 75 µM each time. In addition, the TGI with NCI-H226 lung, in the experiment on MOLT-4 leukemia and in the experiment with U251 CNS was greater than 75 µM each time.
As for `Cn1c2ccccc2c(=O)c2c(O)cc3c(c21)C=CC1(CCCCC1)O3`, the TGI with OVCAR-8 ovarian, with MDA-MB-231 breast, in the experiment with IGROV1 ovarian, in the experiment on A498 renal, in the experiment with COLO 205 colon and in the experiment on HCT-15 colon was greater than 10 µM throughout. In addition, the TGI with NCI-H226 lung, in the experiment with MOLT-4 leukemia and with U251 CNS was greater than 10 µM in each case.
